Reference: US10604523B2, “1-aryl-4-methyl-[1,2,4]triazolo[4,3-a]quinoxaline derivatives” (Janssen Pharmaceutica NV, priority 2011, dated 2020)
Where two headings read alike, the source gives them in different places.

Tests used:
[1] = molecular target: T1, Human recombinant PDE2A (hPDE2A) (Homo sapiens, UniProt O00408); test: In vitro assay PDE2A (SPA, 3H-cGMP); type: biochemical
T1 construct: made in house; host or cells: Sf9 insect cells (baculovirus)
Experimental: Tested compounds were dissolved and diluted in 100% DMSO to a concentration 100 fold of the final concentration in the assay. Compound dilutions (0.4 μl) were added in 384 well plates to 20 μl of incubation buffer (50 mM Tris pH 7.8, 8.3 mM MgCl2, 1.7 mM EGTA). 10 μl of hPDE2A enzyme in incubation buffer was added and the reaction was started by addition of 10 μl substrate to a final concentration of 10 μM cGMP and 0.01 μCi ^3H-cGMP. The reaction was incubated for 45 minutes at room temperature. […] After sedimentation of the beads during 30 minutes the radioactivity was measured in a Perkin Elmer Topcount scintillation counter and results were expressed as cpm. For blanc values the enzyme was omitted from the reaction and replaced by incubation buffer. Control values were obtained by addition of a final concentration of 1% DMSO instead of compound.

[2] = molecular target: T2, Rat recombinant PDE10A (rPDE10A2) (Rattus norvegicus, UniProt Q9QYJ6); test: In vitro assay PDE10A (SPA, 3H-cAMP); type: biochemical
T2 construct: made in house; host or cells: Sf9 insect cells (baculovirus)
T2 sequence (Q9QYJ6 1-794): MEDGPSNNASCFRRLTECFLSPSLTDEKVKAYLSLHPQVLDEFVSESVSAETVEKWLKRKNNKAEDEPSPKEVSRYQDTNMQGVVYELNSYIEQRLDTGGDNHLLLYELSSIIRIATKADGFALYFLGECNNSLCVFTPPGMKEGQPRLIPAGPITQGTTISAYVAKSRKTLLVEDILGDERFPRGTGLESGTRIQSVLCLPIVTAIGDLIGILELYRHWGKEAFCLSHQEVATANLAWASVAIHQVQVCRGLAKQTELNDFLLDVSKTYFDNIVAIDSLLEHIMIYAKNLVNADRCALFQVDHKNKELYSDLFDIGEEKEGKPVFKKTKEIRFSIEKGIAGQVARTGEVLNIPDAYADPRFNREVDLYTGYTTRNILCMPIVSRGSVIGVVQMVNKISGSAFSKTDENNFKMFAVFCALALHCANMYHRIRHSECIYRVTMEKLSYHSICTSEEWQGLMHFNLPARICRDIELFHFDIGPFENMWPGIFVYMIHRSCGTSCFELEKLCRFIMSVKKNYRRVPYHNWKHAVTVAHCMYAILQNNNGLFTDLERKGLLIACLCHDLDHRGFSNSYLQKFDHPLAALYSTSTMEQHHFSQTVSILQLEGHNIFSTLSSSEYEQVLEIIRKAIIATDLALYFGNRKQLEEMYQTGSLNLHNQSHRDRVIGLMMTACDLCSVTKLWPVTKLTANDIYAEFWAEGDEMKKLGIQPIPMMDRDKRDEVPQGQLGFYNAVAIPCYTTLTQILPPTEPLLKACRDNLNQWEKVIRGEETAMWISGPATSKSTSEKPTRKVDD

[3] = system: Apomorphine-induced agitation; test: Reversal of Apomorphine-induced Agitation in Rats (APO); type: in vivo, rat; conditions: for PO Max effect (cumulative agitation score over 60 min) / SC Max effect (cumulative agitation score over 60 min): apomorphine 1.0 mg/kg i.v.; for PO LAD (lowest active dose) / SC LAD (lowest active dose): lowest dose at which ≥67% tested animals respond; for SC Dose at max effect / SC Max effect (cumulative agitation score over 60 min) / SC LAD (lowest active dose): subcutaneous route
Experimental: Apomorphine (1.0 mg/kg, i.v.)-induced agitation was scored every 5 min over the first hour after injection of apomorphine. The score system was: (3) pronounced, (2) moderate, (1) slight, and (0) absent. […] For the present purpose, the cumulative agitation score over the whole 60-min observation period was used as a measure to describe the maximum effect (Max effect).

[4] = read-out: pIC50 PDE2 (converted)
[5] = read-out: PIC50 PDE10 (converted)
[6] = -log IC50 expressed in mol/L, rPDE10A2, 60 nM cAMP, read-out: PIC50 PDE10 (converted)

T1 sequence (O00408 whole entry): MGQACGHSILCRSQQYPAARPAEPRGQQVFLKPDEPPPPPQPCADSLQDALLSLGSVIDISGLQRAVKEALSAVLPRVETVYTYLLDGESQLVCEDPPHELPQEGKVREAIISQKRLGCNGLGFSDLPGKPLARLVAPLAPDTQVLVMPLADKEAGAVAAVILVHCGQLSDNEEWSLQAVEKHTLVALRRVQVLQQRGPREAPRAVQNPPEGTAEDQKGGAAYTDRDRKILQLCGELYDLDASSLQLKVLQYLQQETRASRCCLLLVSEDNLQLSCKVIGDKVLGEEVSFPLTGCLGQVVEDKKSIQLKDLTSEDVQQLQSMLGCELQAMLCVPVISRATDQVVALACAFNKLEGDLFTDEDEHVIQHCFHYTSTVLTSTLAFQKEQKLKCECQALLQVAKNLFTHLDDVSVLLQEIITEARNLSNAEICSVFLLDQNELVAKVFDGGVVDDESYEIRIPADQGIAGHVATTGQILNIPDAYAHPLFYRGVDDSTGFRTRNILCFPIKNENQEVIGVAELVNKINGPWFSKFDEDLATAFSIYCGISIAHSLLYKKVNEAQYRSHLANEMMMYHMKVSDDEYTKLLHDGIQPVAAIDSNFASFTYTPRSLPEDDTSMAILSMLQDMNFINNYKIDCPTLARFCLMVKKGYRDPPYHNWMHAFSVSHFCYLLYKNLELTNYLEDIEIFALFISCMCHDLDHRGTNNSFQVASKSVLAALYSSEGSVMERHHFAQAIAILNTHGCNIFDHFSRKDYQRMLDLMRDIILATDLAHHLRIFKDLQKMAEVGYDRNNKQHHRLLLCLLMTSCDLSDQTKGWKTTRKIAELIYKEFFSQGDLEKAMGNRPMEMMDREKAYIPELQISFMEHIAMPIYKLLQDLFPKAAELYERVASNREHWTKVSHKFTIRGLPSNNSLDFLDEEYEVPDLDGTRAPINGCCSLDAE

Structure (SMILES)	IC50 [1, 4] [nM]	IC50 [2, 5] [nM]	PO Dose at Max Effect [3] [mg/kg]	PO Max effect (cumulative agitation score over 60 min) [3]	PO LAD (lowest active dose) [3] [mg/kg]	SC Dose at max effect [3] [mg/kg]	SC Max effect (cumulative agitation score over 60 min) [3]	SC LAD (lowest active dose) [3] [mg/kg]	IC50 [2, 6] [nM]	IC50 [1] [nM]	IC50 [2] [nM]
Cc1nc2ccc(C(=O)NCc3ccccn3)cc2n2c(-c3cc(Cl)ccc3Cl)nnc12 [Compound B-11, 1-(2,5-Dichlorophenyl)-4-methyl-N-(pyridin-2-ylmethyl)[1,2,4]triazolo[4,3-a]quinoxaline-8-carboxamide]	1.62	33.9	10	19	> 10	–	–	–	–	–	–
CCOc1ccc(Cl)c(-c2nnc3c(C)nc4ccc(N5CCN(C)CC5)cc4n23)c1 [Compound B-102]	18.2	162	–	–	–	10	21	> 10	–	–	–
Cc1ncccc1-c1nnc2c(C)nc3ccc(C(F)(F)F)cc3n12 [Compound B-167]	95.5	263	10	19	10	–	–	–	–	–	–
Cc1nc2ccc(CNC3CCOCC3)cc2n2c(-c3ccccc3Cl)nnc12 [Compound B-76]	7.08	45.7	–	–	–	10	16	10	–	–	–
COCCNc1ccc2nc(C)c3nnc(-c4ccccc4Cl)n3c2c1 [Compound B-67]	6.17	15.5	10	21	> 10	–	–	–	–	–	–
Cc1nc2ccc(NCCc3ccccn3)cc2n2c(-c3ccccc3Cl)nnc12 [Compound B-60]	5.01	6.61	10	21	> 10	–	–	–	–	–	–
Cc1nc2ccc(C(=O)NCc3ccccn3)cc2n2c(-c3cc(F)ccc3Cl)nnc12 [Compound B-39]	1	24	10	21	> 10	–	–	–	–	–	–
CCNC(=O)c1ccc2nc(C)c3nnc(-c4ccccc4F)n3c2c1 [Compound B-51]	2.51	–	10	21	> 10	–	–	–	155	–	–
Cc1nc2ccc(C(=O)NCc3cccnc3)cc2n2c(-c3ccccc3)nnc12 [Compound B-56]	3.98	44.7	10	21	> 10	–	–	–	–	–	–
CCOc1ccc(Cl)c(-c2nnc3c(C)nc4ccc(CN5CCC(F)CC5)cc4n23)c1 [Compound B-140]	34.7	282	–	–	–	10	24	> 10	–	–	–
CCOc1ccc(Cl)c(-c2nnc3c(C)nc4ccc(OCCc5cccnc5)cc4n23)c1 [Compound B-121]	33.9	145	–	–	–	10	21	> 10	–	–	–
Cc1ncccc1-c1nnc2c(C)nc3ccc(CN4CCOCC4)cc3n12 [Compound B-118]	25.7	117	–	–	–	10	17	10	–	–	–
Cc1nc2ccc(CN3CCC(O)CC3)cc2n2c(-c3ccccc3Cl)nnc12 [Compound B-81]	9.55	–	–	–	–	10	19	10	37.2	–	–
Cc1nc2ccc(CN[C@H]3CC[C@H](O)CC3)cc2n2c(-c3ccccc3Cl)nnc12 [Compound B-90]	12	50.1	–	–	–	10	25	> 10	–	–	–
Cc1nc2ccc(C(=O)NCc3ccccn3)cc2n2c(-c3ccc(Cl)cc3Cl)nnc12 [Compound B-108]	20.4	36.3	10	19	> 10	–	–	–	–	–	–
COc1cc(CNC(=O)c2ccc3nc(C)c4nnc(-c5ccccc5Cl)n4c3c2)cc(OC)c1OC [Compound B-66]	5.89	37.2	10	21	> 10	–	–	–	–	–	–
Cc1nc2ccc(C(=O)NCc3cccc(F)n3)cc2n2c(-c3ccccc3Cl)nnc12 [Compound B-32]	0.251	6.61	10	22	> 10	–	–	–	–	–	–
CCOC(=O)c1ccc2nc(C)c3nnc(-c4ccccc4Cl)n3c2c1 [Compound B-1a, Ethyl 1-(2-chlorophenyl)-4-methyl[1,2,4]triazolo[4,3-a]quinoxaline-8-carboxylate]	4.27	–	2.5	22	> 2.5	–	–	–	58.9	–	–
COc1ccccc1-c1nnc2c(C)nc3ccc(C(=O)NCc4ccccn4)cc3n12 [Compound B-53]	3.09	37.2	10	24	> 10	–	–	–	–	–	–
CCOc1ccc(Cl)c(-c2nnc3c(C)nc4ccc(Br)cc4n23)c1 [Compound B-85]	10.7	123	10	21	> 10	–	–	–	–	–	–
CCOc1ccc(Cl)c(-c2nnc3c(C)nc4ccc(CNc5cccnc5)cc4n23)c1 [Compound B-103]	18.6	178	–	–	–	10	21	> 10	–	–	–
Cc1nc2ccc(OCCN3CCOCC3)cc2n2c(-c3ccccc3Cl)nnc12 [Compound B-113]	22.9	33.1	–	–	–	10	8	10	–	–	–
COc1cc(NC(=O)c2ccc3nc(C)c4nnc(-c5ccccc5Cl)n4c3c2)cc(OC)c1OC [Compound B-49]	2.34	77.6	10	24	> 10	–	–	–	–	–	–
CCNC(=O)c1ccc2nc(C)c3nnc(-c4ccccc4OC)n3c2c1 [Compound B-78]	7.59	93.3	10	21	> 10	–	–	–	–	–	–
Cc1nc2ccc(OC(C)(F)F)cc2n2c(-c3ccccc3Cl)nnc12 [Compound B-25, 1-(2-Chlorophenyl)-8-(1,1-difluoroethoxy)-4-methyl[1,2,4]triazolo[4,3-a]-quinoxaline]	3.89	15.5	10	19	10	–	–	–	–	–	–
Cc1nc2ccc(NCCN3CCOCC3)cc2n2c(-c3ccccc3Cl)nnc12 [Compound B-71]	6.31	19.1	–	–	–	10	15	10	–	–	–
Cc1nc2ccc(N3CCN(C)CC3)cc2n2c(-c3ccccc3Cl)nnc12 [Compound B-16, 1-(2-Chlorophenyl)-4-methyl-8-(4-methylpiperazin-1-yl)[1,2,4]triazolo[4,3-a]quinoxaline]	5.25	26.9	–	–	–	2.5	21	> 2.5	–	–	–
Cc1nc2ccc(CN3CCOC(CO)C3)cc2n2c(-c3ccccc3Cl)nnc12 (stereo not drawn) [Compound B-55]	–	–	–	–	–	10	22	> 10	–	3.47	10.7
Cc1nc2ccc(C(O)C(F)(F)F)cc2n2c(-c3ccccc3Cl)nnc12 (stereo not drawn) [Compound B-21, 1-[1-(2-Chlorophenyl)-4-methyl[1,2,4]triazolo[4,3-a]quinoxalin-8-yl]-2,2,2-trifluoroethanol]	6.46	41.7	10	24	> 10	–	–	–	–	–	–
COc1ccc(-c2nnc3c(C)nc4ccc(C(=O)NCc5ccccn5)cc4n23)c(Cl)c1 [Compound B-74]	6.92	129	10	21	> 10	–	–	–	–	–	–
